Laboratory results as given in PMC6814258 (Pharmaceutical research, 2019).
Structures can show the parent of a compound that is named as a salt.

molecular target: Nav1.8 (Homo sapiens, UniProt Q9Y5Y9); test: Nav1.8 FLIPR HTS; format: cell-based; settings: HEK293, read-out: Average percent inhibition at 10 μM (Nav1.8)
Sequence (Q9Y5Y9 whole entry): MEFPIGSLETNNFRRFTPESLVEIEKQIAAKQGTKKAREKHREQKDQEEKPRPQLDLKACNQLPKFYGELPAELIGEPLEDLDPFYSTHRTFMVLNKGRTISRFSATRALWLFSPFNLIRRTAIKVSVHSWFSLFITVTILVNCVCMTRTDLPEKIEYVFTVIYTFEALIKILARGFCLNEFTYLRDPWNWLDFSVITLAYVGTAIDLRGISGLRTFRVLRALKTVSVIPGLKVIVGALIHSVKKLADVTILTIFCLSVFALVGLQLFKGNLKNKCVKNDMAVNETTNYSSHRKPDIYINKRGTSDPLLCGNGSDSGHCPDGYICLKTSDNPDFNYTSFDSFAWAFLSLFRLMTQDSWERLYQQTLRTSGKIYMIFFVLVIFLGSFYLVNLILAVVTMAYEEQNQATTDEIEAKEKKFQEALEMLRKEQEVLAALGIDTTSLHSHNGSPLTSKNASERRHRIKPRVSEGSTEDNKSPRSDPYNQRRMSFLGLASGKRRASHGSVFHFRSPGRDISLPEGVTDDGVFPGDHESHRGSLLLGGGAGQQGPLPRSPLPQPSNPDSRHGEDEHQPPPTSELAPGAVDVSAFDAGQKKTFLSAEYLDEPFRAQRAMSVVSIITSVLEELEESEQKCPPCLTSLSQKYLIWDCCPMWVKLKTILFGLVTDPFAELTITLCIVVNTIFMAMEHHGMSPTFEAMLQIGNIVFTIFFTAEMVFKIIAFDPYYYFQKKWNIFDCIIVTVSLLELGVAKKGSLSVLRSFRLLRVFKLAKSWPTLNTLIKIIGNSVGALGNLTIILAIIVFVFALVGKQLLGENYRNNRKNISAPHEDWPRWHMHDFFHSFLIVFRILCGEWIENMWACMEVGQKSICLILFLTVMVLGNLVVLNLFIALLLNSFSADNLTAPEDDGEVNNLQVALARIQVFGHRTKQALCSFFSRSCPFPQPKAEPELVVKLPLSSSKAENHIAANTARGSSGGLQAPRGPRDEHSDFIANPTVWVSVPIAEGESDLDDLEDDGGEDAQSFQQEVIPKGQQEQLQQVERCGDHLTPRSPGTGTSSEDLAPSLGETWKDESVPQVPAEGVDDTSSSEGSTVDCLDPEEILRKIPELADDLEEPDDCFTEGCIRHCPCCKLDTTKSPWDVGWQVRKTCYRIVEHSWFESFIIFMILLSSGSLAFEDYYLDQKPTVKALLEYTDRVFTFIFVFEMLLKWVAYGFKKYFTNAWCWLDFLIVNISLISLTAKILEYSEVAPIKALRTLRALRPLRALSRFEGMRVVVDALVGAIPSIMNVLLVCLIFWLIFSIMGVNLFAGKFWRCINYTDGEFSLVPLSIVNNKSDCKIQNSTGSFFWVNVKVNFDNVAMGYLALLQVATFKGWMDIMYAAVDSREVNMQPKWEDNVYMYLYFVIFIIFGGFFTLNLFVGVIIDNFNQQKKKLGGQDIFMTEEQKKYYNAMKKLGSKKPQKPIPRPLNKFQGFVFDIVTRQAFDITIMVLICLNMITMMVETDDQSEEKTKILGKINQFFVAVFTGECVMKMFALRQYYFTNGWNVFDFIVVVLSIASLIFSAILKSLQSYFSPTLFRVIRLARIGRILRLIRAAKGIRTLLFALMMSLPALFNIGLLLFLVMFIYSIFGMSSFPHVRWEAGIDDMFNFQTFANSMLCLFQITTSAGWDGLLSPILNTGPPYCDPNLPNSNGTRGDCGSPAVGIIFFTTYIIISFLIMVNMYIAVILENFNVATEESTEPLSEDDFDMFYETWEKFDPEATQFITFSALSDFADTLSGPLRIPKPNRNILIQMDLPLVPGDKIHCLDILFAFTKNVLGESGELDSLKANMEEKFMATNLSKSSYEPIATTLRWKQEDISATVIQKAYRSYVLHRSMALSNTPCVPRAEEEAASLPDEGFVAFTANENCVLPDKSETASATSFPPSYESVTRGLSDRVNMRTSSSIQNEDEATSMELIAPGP

| SMILES | inhibition at 10 µM [%] |
| --- | --- |
| CCN(CC)CCOC(=O)C(c1ccccc1)c1ccccc1 [Adiphenine hydrochloride] | 90.4 |
| COc1ccc(-c2cc(=S)ss2)cc1 [Anethole-trithione] | 78.5 |
| CCCCOc1cc(C(=O)OCCN(CC)CC)ccc1N [Benoxinate hydrochloride] | 83.7 |
| O=C(CCCN1CCC(n2c(O)nc3ccccc32)CC1)c1ccc(F)cc1 [Benperidol] | 84.2 |
| CCCCNc1ccc(C(=O)OCCOCCOCCOCCOCCOCCOCCOCCOCCOC)cc1 [Benzonatate] | 79.9 |
| CN(C)CCCOc1nn(Cc2ccccc2)c2ccccc12 [Benzydamine hydrochloride] | 83.6 |
| CC(C)COCC(CN(Cc1ccccc1)c1ccccc1)N1CCCC1 (stereo not drawn) [Bepridil hydrochloride] | 89.1 |
| CCCCCCNC(=O)n1cc(F)c(=O)[nH]c1=O [Carmofur] | 124 |
| COc1ccccc1OCCNCC(O)COc1cccc2[nH]c3ccccc3c12 (stereo not drawn) [Carvedilol] | 104 |
| CN(C)CC/C=C1/c2ccccc2Sc2ccc(Cl)cc21 [Chlorprothixene hydrochloride] | 77.4 |
| CCCCOc1cc(C(=O)NCCN(CC)CC)c2ccccc2n1 [Dibucaine] | 79.4 |
| CCCCc1cc2ccccc2c(OCCN(C)C)n1 [Dimethisoquin hydrochloride] | 75.5 |
| COc1ccc(C(=O)c2ccccc2O)c(O)c1 [Dioxybenzone] | 100 |
| O=C(Nc1ccccc1)OCC(CN1CCCCC1)OC(=O)Nc1ccccc1 (stereo not drawn) [Diperodon hydrochloride] | 92.2 |
| COc1cc2nc(N3CCN(C(=O)C4COc5ccccc5O4)CC3)nc(N)c2cc1OC (stereo not drawn) [Doxazosin mesylate] | 76.1 |
| CN(C)CCC=C1c2ccccc2COc2ccccc21 [Doxepin hydrochloride] | 88.7 |
| CCN(CC)CCOC(=O)C(c1ccccc1)C1CCCCC1 (stereo not drawn) [Drofenine hydrochloride] | 76.8 |

| SMILES | inhibition at 10 µM [%] |
| --- | --- |
| O=C(CCCN1CC=C(n2c(=O)[nH]c3ccccc32)CC1)c1ccc(F)cc1 [Droperidol] | 87.6 |
| CCCCOc1ccc(C(=O)CCN2CCCCC2)cc1 [Dyclonine hydrochloride] | 99 |
| C[C@]12CC[C@@H]3c4ccc(O)cc4CC[C@H]3[C@@H]1CCC2=O [Estrone] | 78.2 |
| CCN(CC)C(C)CN1c2ccccc2Sc2ccccc21 (stereo not drawn) [Ethopropazine hydrochloride] | 85.5 |
| NC(=O)OCC(COC(N)=O)c1ccccc1 [Felbamate] | 78.6 |
| CC(NCCC(c1ccccc1)c1ccccc1)c1ccccc1 (stereo not drawn) [Fendiline hydrochloride] | 91.3 |
| CC(Cc1ccc(O)cc1)NCC(O)c1cc(O)cc(O)c1 (stereo not drawn) [Fenoterol hydrobromide] | 78.3 |
| CS(=O)(=O)c1ccc([C@@H](O)[C@@H](CF)NC(=O)C(Cl)Cl)cc1 [Florfenicol] | 77.5 |
| Fc1ccc(C(c2ccc(F)cc2)N2CCN(C/C=C/c3ccccc3)CC2)cc1 [Flunarizine dihydrochloride] | 96.6 |
| CC(C)(C)NC[C@H](O)c1ccc(O)c(CO)c1 [Levalbuterol hydrochloride] | 85.3 |
| C[C@H](N)[C@H](O)c1ccc(O)c(O)c1 [Levonordefrin] | 107 |
| CCC(=O)O[C@@](Cc1ccccc1)(c1ccccc1)[C@@H](C)CN(C)C [Levopropoxyphene napsylate] | 95.1 |
| Cc1cccc(C)c1NC(=O)CN1CCN(CCCC(c2ccc(F)cc2)c2ccc(F)cc2)CC1 [Lidoflazine] | 92.7 |
| Cc1cccc(C)c1OCC(=O)N[C@@H](Cc1ccccc1)[C@@H](O)C[C@H](Cc1ccccc1)NC(=O)[C@H](C(C)C)N1CCCNC1=O [Lopinavir] | 76.8 |
| O=c1cc(-c2ccc(O)c(O)c2)oc2cc(O)cc(O)c12 [Luteolin] | 86.2 |
| CCOC(=O)Nc1ccc2c(c1)N(C(=O)CCN1CCOCC1)c1ccccc1S2 [Moricizine hydrochloride] | 75.8 |
